In ChEMBL document CHEMBL1201862, “PubChem BioAssay data set” (2004):
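The compound was tested at five concentrations on cells cultured in 96-well plates, with a 48-hour exposure period. GI50 = concentration required for 50% inhibition of growth.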 Active and inactive are the calls of the source. Cut-off read from the data, not from the text of the source: active = GI50 up to about 1.1 µM and inactive = higher.

What was measured:
Test in all cases: NCI-60 cell line screen, 48 h
[1] = test system: SNB-19
[2] = test system: NCI/ADR-RES
[3] = test system: HT-29
[4] = test system: NCI-H460
[5] = test system: SR
[6] = test system: U-251
[7] = test system: M14
[8] = test system: OVCAR-3
[9] = test system: UACC-257
[10] = test system: Malme-3M
[11] = test system: OVCAR-4
[12] = test system: A498
[13] = test system: SNB-75
[14] = test system: TK-10
[15] = test system: LOX IMVI
[16] = test system: 786-0
[17] = test system: OVCAR-8
[18] = test system: HL-60
[19] = test system: K562
[20] = test system: NCI-H522
[21] = test system: EKVX
[22] = test system: DU-145
[23] = test system: UO-31
[24] = test system: SK-MEL-28
[25] = test system: CAKI-1
[26] = test system: PC-3
[27] = test system: SF-268
[28] = test system: MDA-N
[29] = test system: RXF 393
[30] = test system: UACC-62
[31] = test system: A549
[32] = test system: NCI-H23
[33] = test system: HOP-62
[34] = test system: IGROV-1
[35] = test system: OVCAR-5
[36] = test system: MOLT-4
[37] = test system: T47D
[38] = test system: HCT-116
[39] = test system: HCT-15
[40] = test system: ACHN
[41] = test system: SW-620
[42] = test system: BT-549
[43] = test system: SF-295
[44] = test system: MDA-MB-231
[45] = test system: SK-MEL-5
[46] = test system: SN12C
[47] = test system: NCI-H226
[48] = test system: HOP-92
[49] = test system: MDA-MB-435
[50] = test system: SK-MEL-2
[51] = test system: CCRF-CEM
[52] = test system: COLO 205
[53] = test system: Hs-578T
[54] = test system: SK-OV-3
[55] = test system: HCC 2998
[56] = test system: MCF7
[57] = test system: KM12
[58] = test system: SF-539
[59] = test system: RPMI-8226

Measured: GI50

COC(=O)c1cc(O)nc(O)n1
> 100 µM: [39]
inactive: [1] > 100 µM | [2] > 100 µM | [3] > 100 µM | [4] > 100 µM | [5] > 100 µM | [6] > 100 µM | [7] > 100 µM | [8] > 100 µM | [9] > 100 µM | [10] > 100 µM | [11] > 100 µM | [12] > 100 µM | [13] > 100 µM | [14] > 100 µM | [15] > 100 µM | [16] > 100 µM | [17] > 100 µM | [18] > 100 µM | [19] > 100 µM | [20] > 100 µM | [21] > 100 µM | [22] > 100 µM | [23] > 100 µM | [24] > 100 µM | [25] > 100 µM | [26] > 100 µM | [27] > 100 µM | [28] > 100 µM | [29] > 100 µM | [30] > 100 µM | [31] > 100 µM | [32] > 100 µM | [33] > 100 µM | [34] > 100 µM | [35] > 100 µM | [36] > 100 µM | [37] > 100 µM | [38] > 100 µM | [40] > 100 µM | [41] > 100 µM | [42] > 100 µM | [43] > 100 µM | [44] > 100 µM | [45] > 100 µM | [46] > 100 µM | [47] > 100 µM | [48] > 100 µM | [49] > 100 µM | [50] > 100 µM

CN(C)CCOC1(Cc2ccc(Cl)cc2Cl)CCC(C(C)(C)C)CC1 (centres undefined)
1.85 µM: [39]
inactive: [1] 1.75 µM | [2] 2.3 µM | [3] 1.52 µM | [4] 1.66 µM | [5] 2.52 µM | [51] 1.86 µM | [6] 1.46 µM | [7] 1.79 µM | [52] 1.62 µM | [8] 1.71 µM | [9] 2.04 µM | [10] 2.25 µM | [11] 1.81 µM | [12] 2.88 µM | [13] 1.67 µM | [53] 1.97 µM | [14] 2.62 µM | [15] 1.44 µM | [16] 1.83 µM | [17] 1.94 µM | [19] 1.6 µM | [20] 1.79 µM | [24] 1.65 µM | [25] 2.25 µM | [54] 2.25 µM | [26] 1.48 µM | [27] 5.01 µM | [28] 1.81 µM | [30] 2.12 µM | [31] 3.18 µM | [32] 2.5 µM | [55] 1.63 µM | [33] 1.74 µM | [34] 3.44 µM | [56] 2.01 µM | [35] 2.78 µM | [36] 1.86 µM | [57] 1.77 µM | [38] 1.6 µM | [40] 2.99 µM | [41] 1.51 µM | [42] 1.63 µM | [43] 1.65 µM | [44] 7 µM | [45] 1.56 µM | [46] 1.65 µM | [58] 4.36 µM | [59] 2.16 µM | [49] 1.54 µM | [50] 1.72 µM

C[C@@H]1C(=O)O[C@H]1[C@H](O)CO
> 100 µM: [39]
inactive: [1] > 100 µM | [2] > 100 µM | [4] > 100 µM | [51] > 100 µM | [6] > 100 µM | [7] > 100 µM | [52] > 100 µM | [8] > 100 µM | [9] > 100 µM | [11] > 100 µM | [12] > 100 µM | [13] > 100 µM | [14] > 100 µM | [15] > 100 µM | [16] > 100 µM | [17] > 100 µM | [18] > 100 µM | [21] > 100 µM | [22] > 100 µM | [23] > 10 µM | [24] > 100 µM | [25] > 100 µM | [54] > 100 µM | [26] > 100 µM | [28] > 100 µM | [29] > 100 µM | [30] > 100 µM | [31] > 100 µM | [32] > 100 µM | [55] > 100 µM | [33] > 100 µM | [56] > 100 µM | [35] > 100 µM | [36] 34.1 µM | [37] > 100 µM | [57] > 100 µM | [38] > 100 µM | [40] > 100 µM | [41] > 100 µM | [42] > 100 µM | [43] > 100 µM | [45] > 100 µM | [46] > 100 µM | [59] 94.2 µM | [48] 63.1 µM | [49] > 100 µM | [50] > 100 µM
